By melting point is commonly meant the temperature of the solid-liquid transition. What is called pIC50 is the IC50 on a negative log10 scale, so that one unit is a factor of ten. Read a high pIC50 as a low IC50.

SMILES strings stand for the structures. pIC50: −log10 of the molar value.

The target in data set [1] is benzodiazepine binding site on GABAA receptors (rat cerebral cortex membranes). The data set can be described thus: In vitro inhibition of 3H-flunitrazepam (3H-FNM) binding. The conditions noted are these: inhibition of specific binding of 3H-FNM (1 nM), cerebral cortex membranes from male Wistar rats, 40 min at 2° C. The procedure: In Vitro Inhibition of ^3H-flunitrazepam (^3H-FNM) Binding
The GABA recognition site and the benzodiazepine modulatory unit can selectively be labelled with ^3H-flunitrazepam.
Preparations are performed at 0-4° C. unless otherwise indicated. Cerebral cortex from male Wistar rats (150-200 g) is homogenised for 5-10 sec in 20 ml Tris-HCl (30 mM, pH 7.4) using an Ultra-Turrax homogeniser. The suspension is centrifuged at 27,000×g for 15 min and the pellet is washed three times with buffer (centrifuged at 27,000×g for 10 min). The washed pellet is homogenized in 20 ml of buffer and incubated on a water bath (37° C.) for 30 min to remove endogenous GABA and then centrifuged for 10 min at 27,000×g. The pellet is then homogenized in buffer and centrifuged for 10 min at 27,000×g. The final pellet is resuspended in 30 ml buffer and the preparation is frozen and stored at −20° C.
The membrane preparation is thawed and centrifuged at 2° C. for 10 min at 27,000×g. The pellet is washed twice with 20 ml 50 mM Tris-citrate, pH 7.1 using an Ultra-Turrax homogeniser and centrifuged for 10 min at 27,000×g. The final pellet is resuspended in 50 mM Tris-citrate, pH 7.1 (500 ml buffer per g of original tissue), and then used for binding assays. Aliquots of 0.5 ml tissue are added to 25 μl of test solution and 25 μl of ^3H-FNM (1 nM, final concentration), mixed and incubated for 40 min at 2° C. Non-specific binding is determined using Clonazepam (1 μM, final concentration). After incubation the samples are added 5 ml of ice-cold buffer and poured directly onto Whatman GF/C glass fibre filters under suction and immediately washed with 5 ml ice-cold buffer. The amount of radioactivity on the filters is determined by conventional liquid scintillation counting. Specific binding is total binding minus non-specific binding.
25-75% inhibition of specific binding must be obtained, before calculation of an IC50.
The test value will be given as IC50 (the concentration (μM) of the test substance which inhibits the specific binding of ^3H-FNM by 50%).
Co is specific binding in control assays, and […]

`Cc1noc(-c2cn(-c3cccc(Br)c3)cn2)n1`: the melting point is 200.1 to 202.4 °C.

`Cc1noc(-c2cn(-c3cccc(-c4ccccc4OC(F)(F)F)c3)cn2)n1` [3-Methyl-5-[1-(2′-trifluoromethoxy-biphenyl-3-yl)-1H-imidazol-4-yl]-[1,2,4]oxadiazole] displayed a melting point of 141.6 to 143.9 °C. This molecule gave a pIC50 in data set [1] of 7.77.

On to `Cc1noc(-c2cn(-c3cccc(-c4ccccc4F)c3)cn2)n1` [3-Methyl-5-[1-(2′-fluoro-biphenyl-3-yl)-1H-imidazol-4-yl]-[1,2,4]oxadiazole], for which the negative logarithm of the IC50 (pIC50) in data set [1] was 7.48.

`Cc1noc(-c2cn(-c3cccc(-c4ccc(F)nc4)c3)cn2)n1` [2-Fluoro-5-{3-[4-(3-methyl-[1,2,4]oxadiazol-5-yl)-imidazol-1-yl]-phenyl}-pyridine] gave a pIC50 in data set [1] of 7.22.

For the origin of these results see patent publication US7858649B2, “Imidazole derivatives and their use for modulating the GABAA receptor complex” (Neurosearch A/S, priority 2005, dated 2010).
